# Reference: patent US12616740B2, “Methods of using a GIP/GLP1 co-agonist for therapy” (ELI LILLY AND COMPANY, priority 2018, dated 2026)
# Legend:
# Type in all cases: in vivo, human
# [1] = tested on: patients with T2DM who have inadequate glycemic control; test: NCT03131687: mean fasting glucose at Week 26; parameters: Mean change from baseline, fasting glucose: unit not given here
# Method: Clinical Study (NCT03131687) Supporting Maintenance Dose Embodiments A 6-month (26-week) Phase 2 double-blind clinical study is designed to evaluate the safety, efficacy, and PK/PD of 4 dose levels (1 mg, 5 mg, 10 mg and 15 mg respectively) of tirzepatide once weekly by subcutaneous injection compared with dulaglutide 1.5 mg. once weekly (QW) and placebo QW in patients with T2DM who have inadequate glycemic control with diet and exercise with or without a stable dose of metformin. Tirzepatide dose is up-titrated to the maintenance dose using the following weekly dose increments:
# The study also has a 4-week follow up period. In addition to safety and efficacy for treating T2DM, efficacy endpoints include the effect of tirzepatide on HbA1c, FBG, body weight, lipids, and waist circumference compared with placebo and with dulaglutide 1.5 mg. The study also evaluates the effect of tirzepatide on GI tolerability, hypoglycemia, hypersensitivity reactions, and pancreatic safety, as well as the development of treatment-emergent anti-drug antibodies. Model-based dose response analyses are performed to predict potential for significant HbA1c lowering and weight loss in longer studies. Statistical Analyses: Efficacy: The primary efficacy outcome of HbA1c change from baseline to the 26-week endpoint is analyzed using a Bayesian dose-response model. Analyses are performed on the intention to treat population (mITT) analysis set. Supportive analysis of the primary efficacy outcome for the mITT dataset are the model for post-baseline measures (MMRM) with body mass index (BMI) (<30 kg/m^2, ≥30 kg/m^2), metformin use, treatment, visit, and treatment-by-visit interaction as fixed effects, baseline HbA1c as a covariate, and patient as a random effect. The mean weight change from baseline at 12 and 26 weeks, along with the mean change from baseline of HbA1c at 12 weeks, is analyzed using similar dose-response models as the primary analyses. The percentages of patients with ≥5% or ≥10% body weight loss, reaching the HbA1c target of ≤6.5% or ≤7.0% at 26 weeks, or requiring rescue therapy are analyzed using logistic regression with fixed effects of treatment and strata, and baseline as a covariate. The changes from baseline in FBG (fasting blood glucose), SMBG (self-monitored blood glucose) levels, waist circumference, and mean percentage change in lipids from baseline to 12 and 26 weeks are analyzed using a similar MMRM to the one used for the primary analyses. Table Abbreviations: Dula 1.5 mg=dulaglutide 1.5 mg once weekly; LY means tirzepatide, and LY 1 mg=tirzepatide 1 mg once weekly; LY 5 mg=5 mg once weekly; LY 10 mg=escalation dose group tirzepatide once weekly with highest dose of 10 mg; LY 15 mg=escalation dose group of tirzepatide once weekly with highest dose 15 mg; LOCF=last observation-carried-forward; N=number of patients; pbo=placebo; Week 26=mITT on-treatment data at Week 26 excluding data after study drug discontinuation or rescue drug initiation; mITT=modified intent-to-treat; SD=standard deviation. For Table 4, n=number of patients in the population with baseline and post-baseline value at the specified time point. For Table 6, LY10 mg=escalation dose group tirzepatide, once weekly with highest dose of 10 mg; escalation dose: (5 mg weeks 0 and 1), LY15 mg=escalation dose group tirzepatide, once weekly with highest dose of 15 mg; escalation dose: (5 mg weeks 0 and 1; 10 mg weeks 2 to 5); N=number of patients in specified group, m=number of patients who experienced new event during interval, FolUp=follow up, T/Wk=Time range, (week) and %=means percent patients spending at least some time in treatment group who experienced new event during interval. For Table 7, n is the number of patients with events meeting the criteria; N is number of patients in the population; % is percent of patients in treatment group experiencing the event.
# [2] = tested on: patients with type 2 diabetes who have inadequate glycemic control; test: Phase 2 clinical study NCT03311724 (12 weeks, escalation schemes): patients reaching HbA1c target
# From the text: (§1) This is a 12-week treatment with a 1 week screening (Visit 1) followed by a 1 week lead-in (Visit 2), then 12 weeks of treatment (Visits 3-10, including telephone visits), then followed by 4-week safety follow-up. It is a Phase 2 study designed to examine the efficacy and tolerability of subcutaneously once-weekly tirzepatide compared with placebo in patients with type 2 diabetes who have inadequate glycemic control with diet and exercise alone or with a stable dose of metformin. The study was designed per below and conducted to refine the escalation scheme.
# [3] = NCT03311724: weight loss at Week 12
# From the text: as §1
# [4] = LY1 mg = tirzepatide 1 mg once weekly, N 44
# [5] = LY5 mg = tirzepatide 5 mg once weekly, N 48
# [6] = LY10 mg = tirzepatide once weekly, highest dose 10 mg, N 44
# [7] = LY15 mg = tirzepatide once weekly, highest dose 15 mg, N 35
# [8] = LY 12 mg Group 3 (tirzepatide 4 mg × 4, 8 mg × 4, 12 mg × 4 once weekly), LOCF Week 12 (N = 28)
# [9] = LY 12 mg Group 3 (tirzepatide 4 mg × 4, 8 mg × 4, 12 mg × 4 once weekly), Week 12 mITT on-treatment (N = 27)
# [10] = LY 15 mg-Group 1 (tirzepatide 2.5 mg × 2, 5 mg × 2, 10 mg × 4, 15 mg × 4 once weekly), LOCF Week 12 (N = 28)
# [11] = LY 15 mg-Group 1 (tirzepatide 2.5 mg × 2, 5 mg × 2, 10 mg × 4, 15 mg × 4 once weekly), Week 12 mITT on-treatment (N = 23)
# [12] = LY 15 mg-Group 2 (tirzepatide 2.5 mg × 4, 7.5 mg × 4, 15 mg × 4 once weekly), LOCF Week 12 (N = 27)
# [13] = LY 15 mg-Group 2 (tirzepatide 2.5 mg × 4, 7.5 mg × 4, 15 mg × 4 once weekly), Week 12 mITT on-treatment (N = 26)
# [14] = LY 12 mg Group 3 (tirzepatide 4 mg × 4, 8 mg × 4, 12 mg × 4 once weekly), LOCF Week 12 (N = 27)
# [15] = LY 15 mg-Group 1 (tirzepatide 2.5 mg × 2, 5 mg × 2, 10 mg × 4, 15 mg × 4 once weekly), LOCF Week 12 (N = 27)
substance,measurement,setting,value
tirzepatide [LY],"Mean change from baseline, fasting glucose",[1]; [4],−6.2
same,Mean glucose value (fasting),[1]; [4],154.9 mg/dL
same,"Mean change from baseline, fasting glucose",[1]; [5],−46.7
same,Mean glucose value (fasting),[1]; [5],126.5 mg/dL
same,"Mean change from baseline, fasting glucose",[1]; [6],−66.9
same,Mean glucose value (fasting),[1]; [6],104.8 mg/dL
same,"Mean change from baseline, fasting glucose",[1]; [7],−56.8
same,Mean glucose value (fasting),[1]; [7],110.3 mg/dL
same,fasting serum glucose (in words),"[1]; tirzepatide 5 mg, 10 mg, and 15 mg doses",significantly decrease fasting serum glucose compared with placebo and dulaglutide 1.5 mg
same,placebo-adjusted changes from baseline in HbA1c (in words),"[2]; 12-mg and 15-mg tirzepatide doses, after 12 weeks of treatment, including an 8-week escalation period",statistically significant and clinically relevant
same,% of Patients Reaching HbA1c Target <5.7%,[2]; [8],3.6%
same,% of Patients Reaching HbA1c Target <7%,[2]; [8],71.4%
same,"odds ratio vs. placebo, Patients Reaching HbA1c Target <5.7%",[2]; [8],2.8
same,"odds ratio vs. placebo, Patients Reaching HbA1c Target <7%",[2]; [8],16.1
same,% of Patients Reaching HbA1c Target <5.7%,[2]; [9],3.7%
same,% of Patients Reaching HbA1c Target <7%,[2]; [9],74.1%
same,"odds ratio vs. placebo, Patients Reaching HbA1c Target <5.7%",[2]; [9],2.5
same,"odds ratio vs. placebo, Patients Reaching HbA1c Target <7%",[2]; [9],56.5
same,% of Patients Reaching HbA1c Target <5.7%,[2]; [10],3.6%
same,% of Patients Reaching HbA1c Target <7%,[2]; [10],78.6%
same,"odds ratio vs. placebo, Patients Reaching HbA1c Target <5.7%",[2]; [10],2.9
same,"odds ratio vs. placebo, Patients Reaching HbA1c Target <7%",[2]; [10],25.1
same,% of Patients Reaching HbA1c Target <5.7%,[2]; [11],4.3%
same,% of Patients Reaching HbA1c Target <7%,[2]; [11],87.0%
same,"odds ratio vs. placebo, Patients Reaching HbA1c Target <5.7%",[2]; [11],3.1
same,"odds ratio vs. placebo, Patients Reaching HbA1c Target <7%",[2]; [11],183.5
same,% of Patients Reaching HbA1c Target <5.7%,[2]; [12],7.4%
same,% of Patients Reaching HbA1c Target <7%,[2]; [12],85.2%
same,"odds ratio vs. placebo, Patients Reaching HbA1c Target <5.7%",[2]; [12],5.0
same,"odds ratio vs. placebo, Patients Reaching HbA1c Target <7%",[2]; [12],37.9
same,% of Patients Reaching HbA1c Target <5.7%,[2]; [13],7.7%
same,% of Patients Reaching HbA1c Target <7%,[2]; [13],84.6%
same,"odds ratio vs. placebo, Patients Reaching HbA1c Target <5.7%",[2]; [13],4.6
same,"odds ratio vs. placebo, Patients Reaching HbA1c Target <7%",[2]; [13],157.5
same,body weight vs placebo (in words),"[3]; 12 mg and 15 mg tirzepatide doses, at 12 weeks",significant reductions in body weight compared with placebo
same,% of Patients Achieving Weight loss ≥5%,[3]; [14],63.0%
same,% of Patients Achieving Weight loss ≥10%,[3]; [14],18.5%
same,"odds ratio vs. placebo, Weight loss ≥5%",[3]; [14],22.7
same,"odds ratio vs. placebo, Weight loss ≥10%",[3]; [14],10.4
same,% of Patients Achieving Weight loss ≥5%,[3]; [9],63.0%
same,% of Patients Achieving Weight loss ≥10%,[3]; [9],18.5%
same,"odds ratio vs. placebo, Weight loss ≥5%",[3]; [9],20.7
same,"odds ratio vs. placebo, Weight loss ≥10%",[3]; [9],9.3
same,% of Patients Achieving Weight loss ≥5%,[3]; [15],59.3%
same,% of Patients Achieving Weight loss ≥10%,[3]; [15],14.8%
same,"odds ratio vs. placebo, Weight loss ≥5%",[3]; [15],20.5
same,"odds ratio vs. placebo, Weight loss ≥10%",[3]; [15],8.0
same,% of Patients Achieving Weight loss ≥5%,[3]; [11],56.5%
same,% of Patients Achieving Weight loss ≥10%,[3]; [11],13.0%
same,"odds ratio vs. placebo, Weight loss ≥5%",[3]; [11],17.1
same,"odds ratio vs. placebo, Weight loss ≥10%",[3]; [11],6.2
same,% of Patients Achieving Weight loss ≥5%,[3]; [12],55.6%
same,% of Patients Achieving Weight loss ≥10%,[3]; [12],18.5%
same,"odds ratio vs. placebo, Weight loss ≥5%",[3]; [12],17.6
same,"odds ratio vs. placebo, Weight loss ≥10%",[3]; [12],10.6
same,% of Patients Achieving Weight loss ≥5%,[3]; [13],57.7%
same,% of Patients Achieving Weight loss ≥10%,[3]; [13],19.2%
same,"odds ratio vs. placebo, Weight loss ≥5%",[3]; [13],17.4
same,"odds ratio vs. placebo, Weight loss ≥10%",[3]; [13],9.7
